A short description of one data set: in vivo. The conditions noted are these: B57BL/6J, mouse.
Data set [1] deals with autophagic markers LC3II and p62. Briefly: Induction of autophagy in brain of mice (western blot LC3, p62). The data set is classed as in vivo, mouse. The conditions noted are these: single oral administration 50 mg/kg. The procedure:
In order to investigate whether mTOR inhibition by Cpd. 3 and Cpd. 8 induces autophagy—the essential mechanism for huntingtin aggregate clearance-in the brain, BALB/c nude mice were treated with Cpd. 3 and Cpd. 8 as described in sample 5.
On the technique in general: A western blot detects proteins with antibodies after separation by electrophoresis.

Data set [2] in a line: PK in Sprague Dawley (SD) rats. The data set is classed as in vivo, rat. The procedure:
A single oral administration of cpd. 3, 10 mg/kg was given to female SD rats in a vehicle consisting of DMSO/HPBCD 20% (10/90). Animals were housed in controlled environment and enclosures provided sterile and adequate space with bedding material, food and water, environmental and social enrichment (group housing). Rats were randomized according to their individual body weight, treated and blood, brain and liver were collected and snap frozen at the following time points: 0.5, 2, 4 and 8 hours. Blood (approximately 500-700 μL, collected via cardiac puncture under anesthesia) was immediately transferred into tubes containing lithium-heparin as anticoagulant (Ref: T MLH, Venoject®, Terumo). Tubes were centrifuged at 1,300 g for 10 minutes at +4° C. The resulting plasma was collected and snap frozen in liquid nitrogen and stored at −80° C. until analysis.
Compound concentrations were detected by HPLC-MS/MS. The calibration curves were drawn using standards of known concentrations.

The subject of a further data set is pPKB S473 in A2058 cells. Briefly: In-cell Western blot, pPKB S473. The data set is classed as cell-based. The conditions noted are these: Homo sapiens, treated for 1 hour, normalized to α-tubulin.
The mark [3] stands for this setting: female, Sprague-Dawley, plasma, rat, po, 10 mg/kg, single.

Consider 2 compounds from US11878972B2, “Treatment of neurological disorders” (TORQUR AG, priority 2016, dated 2024).

In general, half-life refers to the time needed for the level to fall by half in the phase considered. What is called AUC is the area under the concentration-time curve, a measure of exposure. Broadly, the Tmax is the time at which the peak concentration occurs. The term Cmax denotes the maximum level reached in the sampled fluid or tissue. What is called IC50 is the concentration that gives 50% inhibition.

Procedure for in vivo: 8, 50 mg/kg was administered to B57BL/6J mice by gavage. Animals were housed in temperature controlled rooms with free access to food and water. Test items were weighed in a glass vial and dissolved first in DMSO. Tween 80 was added subsequently and finally, the formulation was completed with HPβCD 20%. […] Blood was collected in tubes containing K3-EDTA and stored on ice until centrifugation at 3000×g (10 min. 4° C.). The plasma supernatant was separated and kept at −20° C. until being assayed. Thigh muscle and brain of mice were snap frozen. The brain and muscle samples were homogenized in PBS using the Precellys 24/Dual homogeniser.
Samples were analyzed by LC-MS. Calibration standards were prepared by spiking 20 μl of drug free blank plasma with calibration solution. […] Samples were vigorously shaken and centrifuged for 10 minutes at 6000 g and 20° C. […] An aliquot was transferred to 200 μl sampler vials and subsequently subjected to LC-MS with an injection volume of 1.5 μl.
Procedure for pPKB S473 in A2058 cells: Cells are fixed with 4% paraformaldehyde for 30 minutes at room temperature, washed 2 times with 1% BSA in PBS, permeabilized with 0.1% Triton X-100 in PBS/1% BSA for 30 minutes at room temperature and blocked with 5% goat serum in PBS/1% BSA/0.1% Triton X-100 for 30 minutes at room temperature. […] Cells are washed 3 times 5 minutes with PBS/1% BSA/0.1% triton and plate scanned with the Odyssey Infrared Scanning system using both 700 and 800 nm channels. […] To correct for background staining in the data analysis wells are treated only with secondary antibodies.
For data analysis the mean background signal from channel 700 nm and 800 nm are subtracted from each signal in channel 700 nm and 800 nm, respectively.
IC50 values of each compound are determined by plotting the normalized pPBK S473 and pS6 S235/S236 signals, respectively, versus the compound concentrations (in logarithmic scale) and then by fitting a sigmoidal dose-response curve with variable slope to the data using GraphPad™ Prism.

Consider `Nc1cc(C(F)F)c(-c2nc(N3C4CCC3COC4)nc(N3C4CCC3COC4)n2)cn1` [Compound 3, 5-(4-(3-oxa-8-azabicyclo[3.2.1]octan-8-yl)-6-(3-oxa-8-azabicyclo[3.2.1]octan-8-yl)-1,3,5-triazin-2-yl)-4-(difluoromethyl)pyridin-2-amine], for which the half-life in the data set “in vivo” (half-life) was 5 h; in the data set “in vivo” (po, 50 mg/kg, Brain t1/2), 5 h; in the data set “in vivo” (po, 50 mg/kg, Plasma t1/2), 5.3 h; in “in vivo” (po, 50 mg/kg, half-life in mice (estimated)), 4.7 to 4.8 h. In addition, the AUC in the data set “in vivo” (po, 50 mg/kg) is 20500 ng·h/mL; in data set [2] (setting [3]) it was 400 ng·h/mL. In addition, the Tmax in the data set “in vivo” (po, 50 mg/kg) came out at 0.5 h; in data set [2] (female, Sprague-Dawley, brain, rat, po, 10 mg/kg, single, read-out: Brain Tmax), 0.5 h; in data set [2] (female, Sprague-Dawley, plasma, rat, po, 10 mg/kg, single, read-out: Plasma Tmax), 0.5 h. Besides, the “autophagic marker LC3II in brain” value in data set [1] is recorded as “time-dependent increase”. Moreover, the “autophagic marker p62 in brain” value in data set [1] is “decrease”. Further, the oral bioavailability entry in data set [2] (SD rats, single oral 10 mg/kg) is recorded as “good oral bioavailability”. Besides, the “penetration into the brain” value in data set [2] (SD rats, single oral 10 mg/kg) was “excellent penetration into the brain”. This compound also yielded a Cmax in data set [2] (setting [3]) of 1400 ng/mL. Besides, the “Brain AUC” value in data set [2] (rat, po, 10 mg/kg, single) turned out to be 2500 ng·h/mL. The “Brain Cmax” value in data set [2] (rat, po, 10 mg/kg, single) was 1.3 µg/g.

Compound `C[C@H]1COCCN1c1nc(-c2cnc(N)cc2C(F)F)nc(N2CCOCC2)n1` [Compound 8, (S)-4-(difluoromethyl)-5-(4-(3-methylmorpholino)-6-morpholino-1,3,5-triazin-2-yl)pyridin-2-amine] yielded an IC50 in the data set on pPKB S473 in A2058 cells of 0.074 µM.
